# Test results reported in article PMC5796995 (Oncotarget, 2017).
# Assays:
# [1] = test system: Salmonella typhimurium (TA100); type: cell-based
# [2] = test system: calf thymus DNA; type: biochemical
# [3] = test system: plasma proteins; type: in vitro ADME; conditions: human
# [4] = test system: HepG2 cells; type: cell-based, human
# [5] = test system: HepG2 cells; type: cell-based, human; remark: listed apart in the source
# [6] = test system: HepaRG cells; type: cell-based, human
# [7] = test system: HepaRG cells; type: cell-based, human; remark: listed apart in the source
# [8] = test system: hepatic microsomal enzymes; type: in vitro ADME, rat
# [9] = type: physicochemical; conditions: pH 7
# Experimental: Individual standards of AFB1, AFB2a, and AFB2a-Arg were prepared in deionized water (pH 7) at a concentration of 300 ng/mL each. Aliquots of 300 μL of each aqueous standard were added to 300 μL of 1-octanol. Solutions were shaken at 1800 rpm for 5 min and then allowed to equilibrate for an additional 30 minutes. Aqueous and organic layers for each sample were separated and analyzed by HPLC-MS. Octanol-water partition coefficients (P) were calculated as follows: P=[Peak area in octanol fraction]/[Peak area in aqueous fraction]
# [10] = test system: Caco-2 monolayers; type: in vitro ADME
# Experimental: Assay plates containing 12 wells of 21-day Caco-2 monolayers were provided by MB Biosciences. Monolayer integrity was verified using transepithelial electrical resistance measurements (TEER) prior to assay. Treatment solutions of AFB1, AFB2a, and AFB2a-Arg were prepared in the provided Hank's buffered salt solution (HBSS) with a pH of 7.4 and a final DMSO concentration of 0.2%. Caco-2 monolayers were first rinsed with HBSS and then the apical chamber was filled with 500 μL of test compound solution while the basal chamber was filled with 1500 μL of blank HBSS (both chambers were kept at pH 7.4). Plates were incubated at 37°C for 2 hours to allow compound equilibration. Compound concentration was measured at t = 0 hrs and t = 2 hours by HPLC-MS. Permeability (Papp) was calculated as follows: Papp=dQ/dt×1/A×C0
# Where dQ/dt is the amount of translocated material over incubation time (nmol/s), A is the area of the insert (cm^2), and C0 is the initial concentration of the test compound applied. […] ER was calculated as follows: ER=Papp(Basal→Apical)/Papp(Apical→Basal)
Compound,number of revertant wells (mutagenic response) [1],DNA adduct formation [2],plasma protein bound [3] [%],number of micronuclei [4],concentrations that significantly reduced the percentage of viable cells [5],concentrations that significantly reduced the percentage of viable cells [6],number of micronuclei [7],degraded by hepatic microsomal enzymes [8],concentrations without increase in micronuclei formation [4] [µM],octanol-water partition coefficient [9],concentrations without increase in micronuclei formation [7] [µM],"efflux ratio, comparison [10]","intestinal permeability (Papp), comparison ([10]; pH 7.4)"
"COc1cc2c(c3oc(=O)c4c(c13)CCC4=O)C1C=COC1O2 (stereo not drawn) [AFB1, aflatoxin B1, reference compound]",significant increase in the number of revertant wells,presence of DNA adduction,82,significant increase in the number of micronuclei,> 7.5 µM,> 3.75 µM,significant increase in the number of micronuclei,approximately 75%,,,,,
"COc1cc(O)c(-c2ccn(C(CCCNC(=N)N)C(=O)O)c2)c2oc(=O)c3c(c12)CCC3=O (stereo not drawn) [AFB2a-Arg, aflatoxin B2a-arginine]",did not show any significant differences from the vehicle,no additional peaks were discovered,99,did not show this genotoxic marker,no significant decreases in cell viability,no significant decreases in cell viability,did not show this genotoxic marker,not significantly degraded,≤ 60,lower partition coefficient than AFB1 or AFB2a,≤ 60,significantly higher efflux ratio than AFB1,significantly lower than AFB1
